Assay results from article PMC12332667, “Role of Structural Modifications in Peptidomimetic Compounds as Potential Antimicrobial Agents against Staphylococcus aureus and Streptococcus pyogenes: Balancing Bioavailability, Safety, and Antimicrobial Activity” (ACS Omega, 2025).
≈ marks a conversion by molar mass, not a printed value. Where “and” joins values, the source holds several entries; their conditions need not be identical. Identical values can stand only once. Residues, ends and D or L forms follow the SMILES beside them.

What was measured:
S. pyogenes ATCC 19615 = assay: MIC/MBC broth microdilution, S. pyogenes; format: cell-based, Streptococcus pyogenes; settings: S. pyogenes
Outline: (§1)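 BHI broth microdilution (NCCLS); ~10^5 CFU/mL; 37 °C, 18 h. MIC = lowest conc., no visible growth (≥90% vs untreated). MBC = ≤3 colonies, ≥99.9% kill. Water/DMSO/EtOH solvent controls; technical triplicate ×3 biological repeats.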

[1] = system: immortalized human keratinocytes (HaCaT); assay: LDH cytotoxicity test, keratinocytes; format: cell-based; settings: for cytotoxicity (LDH), in words / concentration at which cytotoxic effect starts: 48 h; for cytotoxicity (LDH), in words: 50-150 μg/mL; for concentration at which cytotoxic effect starts: LDH
Outline: (§2)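 Cytotoxicity as LDH release after 48 h serum-free treatment (50, 100, 150 μg/mL peptidomimetics) of 46BR.1N fibroblasts or HaCaT keratinocytes seeded at 5000 per well. Absorbance 450 nm; untreated set as 0% and Triton X-100 1% as maximal release; Mann–Whitney U test, p ≤ 0.05.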

fibroblasts (46BR.1N) = assay: LDH cytotoxicity test, fibroblasts; format: cell-based; settings: for cytotoxicity (LDH), in words / concentration at which cytotoxic effect starts: 48 h; for cytotoxicity (LDH), in words: 50-150 μg/mL; for concentration at which cytotoxic effect starts: LDH
Outline: as §2

P. aeruginosa ATCC 10145 = assay: MIC/MBC broth microdilution, P. aeruginosa; format: cell-based
Outline: as §1

S. agalactiae ATCC 27956 = assay: MIC/MBC broth microdilution, S. agalactiae; format: cell-based, Streptococcus agalactiae; settings: S. agalactiae
Outline: as §1

S. intemrdius c.i. = assay: MIC/MBC broth microdilution, S. intermedius; format: cell-based, Staphylococcus intermedius
Outline: as §1

[2] = system: immortalized human HaCaT keratinocytes; assay: XTT cell proliferation assay, keratinocytes; format: cell-based; settings: for effect on proliferation, in words: XTT, 48 and 72 h, 0.01–150 μg/mL
Outline: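 Proliferation was read as XTT absorbance at 490 nm after 4 h of reagent incubation, following 48 or 72 h of peptide exposure in serum-free HG-DMEM (37 °C, 5% CO2). The 72 h arm included a half-medium change with second peptide dose at 48 h. Significance by Mann–Whitney U, p ≤ 0.05.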

S. aureus ATCC 43300 = assay: MIC/MBC broth microdilution, S. aureus; format: cell-based, Staphylococcus aureus; settings: S. aureus
[3] = 48 h, 50, 100 and 150 μg/mL, vs 1% Triton X-100

SMILES | MBC (S. pyogenes ATCC 19615; H2O) | MIC (S. pyogenes ATCC 19615; H2O) | MBC (S. pyogenes ATCC 19615; water additive DMSO) | MIC (S. pyogenes ATCC 19615; water additive DMSO) | MBC (S. pyogenes ATCC 19615; water additive EtOH) | MIC (S. pyogenes ATCC 19615; water additive EtOH) | cytotoxicity (LDH), in words [1] | concentration at which cytotoxic effect starts [1] | cytotoxicity (LDH), in words (fibroblasts (46BR.1N)) | concentration at which cytotoxic effect starts (fibroblasts (46BR.1N)) | MIC (P. aeruginosa ATCC 10145; H2O) | MIC (P. aeruginosa ATCC 10145; water additive DMSO) | MIC (P. aeruginosa ATCC 10145; water additive EtOH) | MIC (S. agalactiae ATCC 27956; water additive EtOH) | MBC (S. aureus ATCC 43300; H2O) | MIC (S. aureus ATCC 43300; H2O) | MBC (S. aureus ATCC 43300; water additive DMSO) | MIC (S. aureus ATCC 43300; water additive DMSO) | MBC (S. aureus ATCC 43300; water additive EtOH) | MIC (S. aureus ATCC 43300; water additive EtOH) | further results
CC(C)[C@@H](CNC(=O)C(=Cc1ccccc1)c1ccccc1)NC(=O)[C@H](Cc1c[nH]cn1)NC(=O)[C@H](CCCCNC(=N)N)NC(=O)OCc1ccccc1 [Compound A-193] | 16 µg/mL (≈ 21.3 µM) | 8 µg/mL (≈ 10.7 µM) | 16 µg/mL (≈ 21.3 µM) | 8 µg/mL (≈ 10.7 µM) | 16 µg/mL (≈ 21.3 µM) | 8 µg/mL (≈ 10.7 µM) | cytotoxic only at a concentration of 150 μg/mL | 150 µg/mL | cytotoxic only at a concentration of 150 μg/mL | 150 µg/mL | > 512 µg/mL | 512 µg/mL (≈ 683 µM) | > 512 µg/mL | 32 µg/mL (≈ 42.7 µM) | 32 µg/mL (≈ 42.7 µM) | 32 µg/mL (≈ 42.7 µM) | 32 µg/mL (≈ 42.7 µM) | 32 µg/mL (≈ 42.7 µM) | 32 µg/mL (≈ 42.7 µM) | 32 µg/mL (≈ 42.7 µM) | MBC (S. intemrdius c.i.; H2O): 32 µg/mL (≈ 42.7 µM); MIC (S. intemrdius c.i.; H2O): 16 µg/mL (≈ 21.3 µM); MIC (S. intemrdius c.i.; water additive DMSO): 32 µg/mL (≈ 42.7 µM); MBC (S. intemrdius c.i.; water additive EtOH): 32 µg/mL (≈ 42.7 µM); MIC (S. intemrdius c.i.; water additive EtOH): 16 µg/mL (≈ 21.3 µM); antiproliferative effect (decrease vs control) ([2]; up to 150 μg/mL, A-193 and A-179 after 48 h): over 50%
CC(C)[C@H](NC(=O)[C@H](Cc1c[nH]cn1)NC(=O)[C@H](CCCCN)NC(=O)OCc1ccccc1)C(=O)NCCc1ccccc1 [Compound A-220] (HELM PEPTIDE1{[O=C(OCc1ccccc1)[*:2]].K.H.V.[c1ccc(CCN[*:1])cc1]}$$$$V2.0) | > 512 µg/mL | 512 µg/mL (≈ 826 µM) | 256 µg/mL (≈ 413 µM) |  | 512 µg/mL (≈ 826 µM) | 512 µg/mL (≈ 826 µM) |  | > 150 µg/mL |  | > 150 µg/mL | 512 µg/mL (≈ 826 µM) | 512 µg/mL (≈ 826 µM) | 512 µg/mL (≈ 826 µM) | 512 µg/mL (≈ 826 µM) | 512 µg/mL (≈ 826 µM) | 512 µg/mL (≈ 826 µM) | 512 µg/mL (≈ 826 µM) | 512 µg/mL (≈ 826 µM) | 512 µg/mL (≈ 826 µM) | 512 µg/mL (≈ 826 µM) | cytotoxicity (LDH) [1, 3]: 10–15% and 10%; cytotoxicity (LDH) (fibroblasts (46BR.1N); [3]): 10–15% and 10%; MBC (P. aeruginosa ATCC 10145; H2O): > 512 µg/mL; MBC (P. aeruginosa ATCC 10145; water additive DMSO): > 512 µg/mL; MBC (P. aeruginosa ATCC 10145; water additive EtOH): > 512 µg/mL; MBC (S. agalactiae ATCC 27956; H2O): 512 µg/mL (≈ 826 µM); MIC (S. agalactiae ATCC 27956; H2O): 512 µg/mL (≈ 826 µM); MBC (S. agalactiae ATCC 27956; water additive DMSO): 512 µg/mL (≈ 826 µM); MIC (S. agalactiae ATCC 27956; water additive DMSO): 512 µg/mL (≈ 826 µM); MBC (S. agalactiae ATCC 27956; water additive EtOH): 512 µg/mL (≈ 826 µM); effect on proliferation, in words [2]: did not exert any negative impact
CC(C)[C@H](NC(=O)[C@H](CCCNC(=N)N)NC(=O)[C@H](CCCNC(=N)N)NC(=O)OCc1ccccc1)C(=O)NCCc1ccccc1 [Compound A-221] (HELM PEPTIDE1{[O=C(OCc1ccccc1)[*:2]].R.R.V.[c1ccc(CCN[*:1])cc1]}$$$$V2.0) | 256 µg/mL (≈ 384 µM) |  | > 512 µg/mL | 512 µg/mL (≈ 768 µM) | 256 µg/mL (≈ 384 µM) |  | no adverse effects |  | slight cytotoxicity |  |  | 32 µg/mL (≈ 48 µM) |  | 256 µg/mL (≈ 384 µM) | 512 µg/mL (≈ 768 µM) | 512 µg/mL (≈ 768 µM) |  | > 512 µg/mL | 512 µg/mL (≈ 768 µM) | 256 µg/mL (≈ 384 µM) | MBC (P. aeruginosa ATCC 10145; H2O): 256 µg/mL (≈ 384 µM); MBC (S. agalactiae ATCC 27956; H2O): 512 µg/mL (≈ 768 µM); MIC (S. agalactiae ATCC 27956; H2O): 256 µg/mL (≈ 384 µM); MBC (S. agalactiae ATCC 27956; water additive DMSO): 512 µg/mL (≈ 768 µM); MIC (S. agalactiae ATCC 27956; water additive DMSO): 256 µg/mL (≈ 384 µM); MBC (S. agalactiae ATCC 27956; water additive EtOH): 512 µg/mL (≈ 768 µM); effect on proliferation, in words [2]: pro-proliferating effect at lower concentrations followed by an antiproliferative effect at higher concentrations
